Experimental data taken from the supplement of paper PMC9663587.

What was measured:
[1] = compound: CCN1CCN(Cc2ccc(Nc3ncc(F)c(-c4cc(F)c5nc(C)n(C(C)C)c5c4)n3)nc2)CC1; experiment: GR value, 72 h; higher = faster growth (1 = untreated, <0 = killing);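 note: breast cancer and non-malignant breast epithelial lines, nine half-log doses, viable cells counted by Hoechst and LIVE/DEAD dye imaging versus time-zero plates and DMSO controls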
THZ1 = compound: CN(C)C/C=C/C(=O)Nc1ccc(C(=O)Nc2cccc(Nc3ncc(Cl)c(-c4c[nH]c5ccccc45)n3)c2)cc1 [THZ1]; experiment: as above
[2] = compound: CCc1cnn2c(NCc3ccc[n+]([O-])c3)cc(N3CCCC[C@H]3CCO)nc12; experiment: as above
BSJ-03-123 = compound: CC(=O)c1c(C)c2cnc(Nc3ccc(N4CCN(CCOCCOCCOCCNC(=O)COc5cccc6c5C(=O)N(C5CCC(=O)NC5=O)C6=O)CC4)cn3)nc2n(C2CCCC2)c1=O [BSJ-03-123]; experiment: as above
YKL-5-124 = compound: C=CC(=O)Nc1ccc(C(=O)Nc2[nH]nc3c2CN(C(=O)N[C@H](CN(C)C)c2ccccc2)C3(C)C)cc1 [YKL-5-124]; experiment: as above
THZ531 = compound: CN(C)C/C=C/C(=O)Nc1ccc(C(=O)N2CCC[C@@H](Nc3ncc(Cl)c(-c4c[nH]c5ccccc45)n3)C2)cc1 [THZ531]; experiment: as above
Flavopiridol [3] = compound: T1, CN1CC[C@H](c2c(O)cc(O)c3c(=O)cc(-c4ccccc4Cl)oc23)[C@H](O)C1 [Flavopiridol]; experiment: as above
Neratinib/HKI272 = compound: CCOc1cc2ncc(C#N)c(Nc3ccc(OCc4ccccn4)c(Cl)c3)c2cc1NC(=O)/C=C/CN(C)C [Neratinib/HKI272]; experiment: as above
[4] = compound: CC(=O)c1c(C)c2cnc(Nc3ccc(N4CCNCC4)cn3)nc2n(C2CCCC2)c1=O; experiment: as above
LEE011/Ribociclib = compound: CN(C)C(=O)c1cc2cnc(Nc3ccc(N4CCNCC4)cn3)nc2n1C1CCCC1 [LEE011/Ribociclib]; experiment: as above
Taselisib/GDC0032 = compound: Cc1nc(-c2cn3c(n2)-c2ccc(-c4cnn(C(C)(C)C(N)=O)c4)cc2OCC3)n(C(C)C)n1 [Taselisib/GDC0032]
ABT-737 = compound: CN(C)CC[C@H](CSc1ccccc1)Nc1ccc(S(=O)(=O)NC(=O)c2ccc(N3CCN(Cc4ccccc4-c4ccc(Cl)cc4)CC3)cc2)cc1[N+](=O)[O-] [ABT-737]
Saracatinib/AZD0530 = compound: CN1CCN(CCOc2cc(OC3CCOCC3)c3c(Nc4c(Cl)ccc5c4OCO5)ncnc3c2)CC1 [Saracatinib/AZD0530]
Flavopiridol [5] = compound: T1, Flavopiridol
[6] = compound: CO[C@@H](C)Cn1c(=O)n(C)c2cnc3ccc(-c4cncc(C(C)(C)O)c4)cc3c21
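Throughout, for GR50, 72 h: breast cancer and non-malignant breast epithelial cell lines, Deep Dye Drop or Dye Drop imaging, nine half-log doses, GR normalized to time-zero plates and DMSO-only controls.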

## BT20
[1]; 0.001 µM
  GR value: 0.933 GR
[1]; 0.003162 µM
  GR value: 0.9 GR
[1]; 0.01 µM
  GR value: 0.69 GR
[1]; 0.03162 µM
  GR value: 0.489 GR
[1]; 0.1 µM
  GR value: 0.331 GR
[1]; 0.3162 µM
  GR value: 0.264 GR
[1]; 1 µM
  GR value: 0.231 GR
[1]; 3.162 µM
  GR value: 0.163 GR
[1]; 10 µM
  GR value: -0.21 GR
THZ1; 0.0001 µM
  GR value: 0.946 GR
THZ1; 0.0003162 µM
  GR value: 1.04 GR
THZ1; 0.001 µM
  GR value: 1 GR
THZ1; 0.003162 µM
  GR value: 1.02 GR
THZ1; 0.01 µM
  GR value: 1.03 GR
THZ1; 0.03162 µM
  GR value: 1.01 GR
THZ1; 0.1 µM
  GR value: 1.01 GR
THZ1; 0.3162 µM
  GR value: 0.807 GR
THZ1; 1 µM
  GR value: -0.409 GR
[2]; 0.0001 µM
  GR value: 0.951 GR
[2]; 0.0003162 µM
  GR value: 1.01 GR
[2]; 0.001 µM
  GR value: 0.998 GR
[2]; 0.003162 µM
  GR value: 1.1 GR
[2]; 0.01 µM
  GR value: 0.929 GR
[2]; 0.03162 µM
  GR value: -0.235 GR
[2]; 0.1 µM
  GR value: -0.645 GR
[2]; 0.3162 µM
  GR value: -0.672 GR
[2]; 1 µM
  GR value: -0.698 GR
BSJ-03-123; 0.001 µM
  GR value: 0.934 GR
BSJ-03-123; 0.003162 µM
  GR value: 0.738 GR
BSJ-03-123; 0.01 µM
  GR value: 0.759 GR
BSJ-03-123; 0.03162 µM
  GR value: 0.7 GR
BSJ-03-123; 0.1 µM
  GR value: 0.664 GR
BSJ-03-123; 0.3162 µM
  GR value: 0.528 GR
BSJ-03-123; 1 µM
  GR value: 0.445 GR
BSJ-03-123; 3.162 µM
  GR value: 0.365 GR
BSJ-03-123; 10 µM
  GR value: 0.0085 GR
YKL-5-124; 0.001 µM
  GR value: 0.835 GR
YKL-5-124; 0.003162 µM
  GR value: 0.664 GR
YKL-5-124; 0.01 µM
  GR value: 0.432 GR
YKL-5-124; 0.03162 µM
  GR value: 0.395 GR
YKL-5-124; 0.1 µM
  GR value: 0.219 GR
YKL-5-124; 0.3162 µM
  GR value: 0.229 GR
YKL-5-124; 1 µM
  GR value: 0.13 GR
YKL-5-124; 3.162 µM
  GR value: 0.0428 GR
YKL-5-124; 10 µM
  GR value: -0.116 GR
THZ531; 0.0001 µM
  GR value: 1 GR
THZ531; 0.0003162 µM
  GR value: 0.93 GR
THZ531; 0.001 µM
  GR value: 0.967 GR
THZ531; 0.003162 µM
  GR value: 0.988 GR
THZ531; 0.01 µM
  GR value: 1.09 GR
THZ531; 0.03162 µM
  GR value: 1 GR
THZ531; 0.1 µM
  GR value: 0.927 GR
THZ531; 0.3162 µM
  GR value: 0.907 GR
THZ531; 1 µM
  GR value: 0.647 GR
Flavopiridol [3]; 0.0001 µM
  GR value: 0.987 GR
Flavopiridol [3]; 0.0003162 µM
  GR value: 0.946 GR
Flavopiridol [3]; 0.001 µM
  GR value: 0.999 GR
Flavopiridol [3]; 0.003162 µM
  GR value: 0.931 GR
Flavopiridol [3]; 0.01 µM
  GR value: 0.993 GR
Flavopiridol [3]; 0.03162 µM
  GR value: 0.835 GR
Flavopiridol [3]; 0.1 µM
  GR value: 0.593 GR
Flavopiridol [3]; 0.3162 µM
  GR value: -0.0024 GR
Flavopiridol [3]; 1 µM
  GR value: -0.639 GR
Neratinib/HKI272; 0.0003162 µM
  GR value: 1.04 GR
Neratinib/HKI272; 0.001 µM
  GR value: 1.03 GR
Neratinib/HKI272; 0.003162 µM
  GR value: 1.07 GR
Neratinib/HKI272; 0.01 µM
  GR value: 0.976 GR
Neratinib/HKI272; 0.03162 µM
  GR value: 0.918 GR
Neratinib/HKI272; 0.1 µM
  GR value: 0.86 GR
Neratinib/HKI272; 0.3162 µM
  GR value: 0.693 GR
Neratinib/HKI272; 1 µM
  GR value: 0.607 GR
Neratinib/HKI272; 3.162 µM
  GR value: 0.295 GR
[4]; 0.0003162 µM
  GR value: 1.07 GR
[4]; 0.001 µM
  GR value: 1.09 GR
[4]; 0.003162 µM
  GR value: 0.956 GR
[4]; 0.01 µM
  GR value: 0.809 GR
[4]; 0.03162 µM
  GR value: 0.567 GR
[4]; 0.1 µM
  GR value: 0.36 GR
[4]; 0.3162 µM
  GR value: 0.24 GR
[4]; 1 µM
  GR value: 0.203 GR
[4]; 3.162 µM
  GR value: 0.156 GR
LEE011/Ribociclib; 0.001 µM
  GR value: 0.818 GR
LEE011/Ribociclib; 0.003162 µM
  GR value: 0.759 GR
LEE011/Ribociclib; 0.01 µM
  GR value: 0.624 GR
LEE011/Ribociclib; 0.03162 µM
  GR value: 0.672 GR
LEE011/Ribociclib; 0.1 µM
  GR value: 0.651 GR
LEE011/Ribociclib; 0.3162 µM
  GR value: 0.49 GR
LEE011/Ribociclib; 1 µM
  GR value: 0.463 GR
LEE011/Ribociclib; 3.162 µM
  GR value: 0.384 GR
LEE011/Ribociclib; 10 µM
  GR value: 0.0703 GR
Taselisib/GDC0032
  GR50, 72 h: 0.0181 µM
ABT-737
  GR50, 72 h: > 10 µM
Saracatinib/AZD0530
  GR50, 72 h: 4.37 µM
Flavopiridol [5]
  GR50, 72 h: 0.11 µM
[6]
  GR50, 72 h: 0.00613 µM
